Reference: US12031087B2, “Oxygenated solvents for improved production of oil and gas” (Board of Regents, The University of Texas System, priority 2019, dated 2024)
Where two headings read alike, the source gives them in different places.

Legend:
[1] = Source text: Experimental Procedure for Flooding/Soaking Experiments. […] This section describes the preparation of the tight cores and the flooding/soaking experiments. Properties of the tight carbonate cores and the injection scheme for two flooding/soaking experiments are also summarized in this section.
Rocherons carbonate cores (Kocurek Industries Inc.) were used in this research. […] In this research, 11 core pieces were saturated only by crude oil and 5 core pieces were saturated by both crude oil and reservoir brine at room temperature. To saturate core pieces by crude oil, they were placed in an accumulator, which was evacuated for at least 24 hours. […] The weights of the core pieces were measured before and after saturating by crude oil to quantify the oil volume in the cores. The volume so determined was assumed to be the accessible pore volume (PV) of the core. […] It consists of an accumulator for reservoir brine, a pump, a Hassler-type core-holder, a hydraulic manual pump to maintain the overburden pressure and cylinders. Before brine injection, the inlet tubing of the coreholder was evacuated for 10 seconds to prevent injecting air into the core. The core was flooded by brine until the injected brine volume exceeded the accessible pore volume. […] The weights of the core pieces were measured after they were re-saturated by the crude oil. The brine and oil volumes in the core pieces were calculated by the following equations. […] Then, oil and brine saturations in each core piece can be calculated. Table 19 presents the properties of the core pieces, including the length of each core piece, accessible pore volume, and oil and brine saturations. Core pieces #1-#5 in Table 19 were saturated by both brine and oil.
An artificial fracture was created along the longitudinal axis using an electric saw for each core piece. Teflon spacers with 0.001 m in width were placed along two edges of the fracture to maintain a fracture aperture. Then, the core halves were carefully put together with the Teflon spacers placed in the fracture, wrapped with a Teflon tube and placed inside a horizontally-oriented core holder, with the fracture vertically-oriented. Teflon spacer was not placed in the space between core pieces. […] When assembling the core pieces for Case 1, core pieces were put so that oil saturation changes monotonically. Qualitatively, the longitudinal fracture served as a propped fracture and the fractures normal to it served as unpropped fractures in terms of hydraulic paths.
FIG. 59 presents a schematic of the experimental set-up for the flooding/soaking experiment. […] Then, the system was evacuated for 10 seconds to remove any air trapped in the fractures. After that, the core was flooded with crude oil to measure the fracture permeability by using the flow rate of 500 cm^3/hr under certain overburden pressure. Table 20 provides the pressure drops along the cores at a certain flow rate and the overburden pressures used.
During flooding/soaking experiments, the RB was injected at 6 ml/hr until no more oil production was observed. Then, the surfactant solution was injected at 6 ml/hr to fill the volume from the inlet of the coreholder until the outlet line of the coreholder, which was followed by a 10-hour soaking period. After that, the surfactant solution was injected at 6 ml/hr to chase the fluid in the system and to recover the produced oil during the first soaking period. The system was then shut-in for a second 10-hour soaking period. RB was then injected at 6 ml/hr to chase the fluid in the system and to recover the produced oil during the second soaking period. Finally, the system was shut-in for a 12-hour soaking period, followed by RB injection to chase the fluid in the system until no oil production.
The effluent was collected in plastic graduating cylinders at room temperature.

[2] = Coreflooding of fractured cores, vertical (Example 2)
Protocol: Experimental Procedure for Coreflooding. […] The Indiana limestone cores have the common dimensions with a diameter of 0.0254 m and a length of 0.127 m. The cores were saturated with RB first and then oil, during which the core properties were measured, such as porosity, permeability, and water and oil saturations.
It includes an accumulator for crude oil, a pump, a Hassler-type core holder, a hydraulic manual pump to maintain the overburden pressure, a differential pressure gauge, cylinders, and an oven. After a core was placed in the core holder, oil was injected into the cores at 100 cm^3/h and 347 K until no water production was observed.
An artificial fracture was created along the longitudinal axis using an electric saw for each core (FIG. 20). By following the procedure of Mejia, Teflon spacers with 0.001 m in width and 0.127 m in length were placed along two edges of the fracture to maintain a fracture aperture. Then, the core halves were carefully put together with the Teflon spacers in the fracture, wrapped with a Teflon tube, and placed inside a vertically oriented coreholder.
FIG. 21 provides a schematic of the experimental setup for coreflooding. It consists of accumulators for crude oil, RB, and chemical solution (3-pentanone or surfactant), a pump, a Hassler-type core holder, a hydraulic manual pump to maintain the overburden pressure, a differential pressure gauge, cylinders, and an oven. […] After a fractured core was placed in the coreholder, the oven temperature was increased to reservoir temperature (347 K). Then, the core was flooded with crude oil to remove any gas inside the fracture and measure the fracture permeability using the flow rate of 900 cm^3/h. The overburden pressure was adjusted so that all cores used in this research had similar fracture apertures and fracture permeabilities.
Fracture permeabilities were calculated. The equation for flow between parallel plates b=(3πdke)^1/3 was used to estimate a fracture aperture, where b is the fracture aperture, d is the core diameter, and ke is the effective oil permeability of the fractured core. […] Af and Am are cross-sectional areas of the fracture and matrix, respectively. kf and km are permeabilities of the fracture and matrix, respectively.
The initial RB stage was at 6 cm^3/h for 1.5 pore volumes injected (PVI), then at 0.05 cm^3/h for 0.3-0.4 PVI, and at 6 cm^3/h until there was no oil production. After that, a chemical slug (3-pentanone or surfactant) was injected at 0.6 cm^3/h for 1.6 PVI. Finally, the chase RB was injected at 0.6 cm^3/h. […] However, it was terminated after 1.2 PVI of the chase RB for core 1 because of operational constraints.
The coreflood effluent was collected in plastic graduating cylinders at room temperature. To correct the oil recovery factor for 3-pentanone solubility in oil, the 3-pentanone concentration in recovered oil was measured by the proton nuclear magnetic resonance (H NMR) method for the chemical slug and chase RB flooding periods for core 1.

[3] = 347 K
Source text: Contact Angle Experiments. […] The procedure largely follows that of Example 1, but as explained below, a change to the previous procedure was necessary because it was not possible to continuously monitor oil droplets on the calcite surface with the surfactant solution.
Before the contact angle measurement, the chemical solution and RB were separately degasified at elevated temperatures. Then, oil-aged calcite pieces were placed in RB. Oil droplets were placed on the bottom surface of a calcite piece in the RB glass chamber.
The calcite piece was continued to be placed in the surfactant solution and taken out after 1 day. Then, the calcite piece was rinsed with RB and placed in RB with no surfactant. […] A photo of the oil droplet was taken then. The contact angles of both sides of each oil droplet were measured using onscreen protractor software. An average contact angle and standard deviation were then calculated.

[4] = 24 h after immersion in 1.0 wt % surfactant solution

2-ethylhexanol-4 propylene oxide-15 ethylene oxide [2-EH-4PO-15EO]
total improved oil recovery ([1]; Case 1 (with initial water)): 76.11 % OOIM | Cumulative improved oil recovery factor by surfactant solution ([1]; Case 1 (with initial water), after the 1st soaking period): 0.3348 | Cumulative improved oil recovery factor by surfactant solution ([1]; Case 1 (with initial water), after the 2nd soaking period): 0.6303 | Cumulative improved oil recovery factor by surfactant solution ([1]; Case 1 (with initial water), after the 3rd soaking period): 0.7611 | incremental oil recovery ([1]; Case 1, after the 1st soaking period): 33.48 % OOIM | incremental oil recovery ([1]; Case 1, after the 2nd soaking period): 29.55 % OOIM | incremental oil recovery ([1]; Case 1, after the 3rd soaking period): 13.09 % OOIM | total improved oil recovery ([1]; Case 2 (without initial water)): 78.42 % OOIM | Cumulative improved oil recovery factor by surfactant solution ([1]; Case 2 (without initial water), after the 1st soaking period): 0.3555 | Cumulative improved oil recovery factor by surfactant solution ([1]; Case 2 (without initial water), after the 2nd soaking period): 0.6647 | Cumulative improved oil recovery factor by surfactant solution ([1]; Case 2 (without initial water), after the 3rd soaking period): 0.7842 | incremental oil recovery ([1]; Case 2, after the 1st soaking period): 35.55 % OOIM | incremental oil recovery ([1]; Case 2, after the 2nd soaking period): 30.92 % OOIM | incremental oil recovery ([1]; Case 2, after the 3rd soaking period): 11.95 % OOIM | incremental oil recovery factor, chemical slug stage ([2]; 1.6 PVI slug after first RB flood, 1.1 wt % 3-pentanone in RB (core 1) or 1.0 wt % 2-EH-4PO-15EO in RB (core 2), 347 K): 23.6% | incremental oil recovery factor, chase RB flooding stage ([2]; 7.0 PVI chase RB, core 2, 347 K): 23.7% | total improved oil recovery ([2]; chemical slug + chase RB stages (1.2 PVI chase core 1; 7.0 PVI chase core 2), 347 K): 47.3% | Average contact angle [3, 4]: 47.1 deg | contact angle, left side [3, 4]: 47.5 deg | contact angle, right side [3, 4]: 46.8 deg | Average contact angle ([3]; at the initialization): 134.1 deg | contact angle, left side ([3]; at the initialization): 133.2 deg | contact angle, right side ([3]; at the initialization): 135.1 deg
